The series in a line: Observation of the haloprogin / 2-octyl cyanoacrylate monomer composition in a sealed glass vial. The series is classed as physicochemical. The following applies: 30 mg haloprogin in 2 mL 2-octyl cyanoacrylate monomer. On the procedure: A 2-octyl cyanoacrylate monomer composition is prepared by adding 30 mg of haloprogin, an anti-fungal agent, to 2 mL of 2-octyl cyanoacrylate monomer. The mixture is sealed in a glass vial and stirred. The characteristics of the composition are observed at about one minute after preparation and later at least twenty-four hours after preparation.

Consider `Clc1cc(Cl)c(OCC#CI)cc1Cl` [haloprogin], for which the “premature polymerization of the monomer” value (at least twenty-four hours after preparation) is given as “does not cause premature polymerization”. In addition, the “solubility of haloprogin in the monomer” value (observed about one minute and at least twenty-four hours after preparation) is “soluble”.

These data come from patent publication US6767552B2, “Adhesive treatment for oral fungal infection” (Closure Medical Corporation, priority 2001, dated 2004).
